Drawing on ChEMBL document CHEMBL1154895, “Cytotoxic neoclerodane diterpenoids from Scutellaria barbata” (J Nat Prod, 2010), this text covers IC50 for 1 compound.

The term IC50 denotes the concentration that inhibits the measured activity by half. A high value points to lower potency.

The assay deals with SK-BR-3. As to the kind of experiment: Cytotoxicity against human SK-BR-3 cells after 48 hrs by MTT assay. The format is functional, cell-based. To be noted: SK-BR-3, 48 h.

Structures are written as SMILES.

`CC(=O)O[C@@H](CC1=C(O)C(=O)OC1)[C@]1(C)[C@H]2CCC=C(C)[C@]2(C)[C@@H](OC(=O)c2ccccc2)[C@H](OC(=O)c2ccccc2)[C@]1(C)O` (mixture of isomers) [SCUTEBATA A] came in with an IC50 of 15.2 µM.
